Measurements published in patent publication US20140315886A1, “QUINAZOLINES AS THERAPEUTIC COMPOUNDS AND RELATED METHODS OF USE” (OTSUKA PHARMACEUTICAL CO., LTD., priority 2011, published 2014).
pIC50: −log10 of the molar value.

Target: T1, purified STEP46 enzyme (Homo sapiens, UniProt P54829)
T1 sequence (P54829 197-565 limits assumed): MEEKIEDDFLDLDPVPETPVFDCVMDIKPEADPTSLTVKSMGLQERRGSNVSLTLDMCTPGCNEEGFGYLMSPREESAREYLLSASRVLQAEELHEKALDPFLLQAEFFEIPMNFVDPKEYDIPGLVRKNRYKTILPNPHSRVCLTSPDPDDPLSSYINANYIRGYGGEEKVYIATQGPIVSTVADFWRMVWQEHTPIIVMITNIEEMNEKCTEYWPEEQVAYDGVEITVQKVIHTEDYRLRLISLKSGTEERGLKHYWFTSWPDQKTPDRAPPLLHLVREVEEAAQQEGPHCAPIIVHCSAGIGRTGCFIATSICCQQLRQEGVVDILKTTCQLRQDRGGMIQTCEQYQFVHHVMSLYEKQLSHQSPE
Test: STEP46 biochemical assay (DiFMUP fluorescence phosphatase assay)
Settings: DiFMUP 10 μM, read-out: STEP IC50
Outline: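 Purified human STEP46 preincubated 30 min at room temperature with compounds in Hepes/DTT/Brij35 buffer (2% DMSO final), then reacted with 10 μM DiFMUP for 90 min at 27°C; fluorescence read at 360/460 nm. IC50 from four-parameter fit; activation shown as negative % inhibition at 25, 50, 100 uM.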

SMILES	pIC50
Clc1cncc(Nc2nc(-c3cccnc3)nc3ccc(Cl)cc23)c1 [Compound 70]	> 6.00
CCOc1ccc2nc(-c3cccnc3)nc(Nc3cc(C)c(F)cn3)c2c1 [Compound 67]	5.00 to 6.00
CNc1nc(-c2cccnc2)nc2cc(-c3cc(F)ccc3F)c(F)cc12 [Compound 554]	5.00 to 6.00
CNc1nc(-c2cccnc2)nc2c(F)c(-c3ccc(OC)cc3)ccc12 [Compound 518]	5.00 to 6.00
CNc1nc(-c2cnccn2)nc2ccc(-c3cc(F)cc(F)c3)c(F)c12 [Compound 980]	5.00 to 6.00
CNc1nc(-c2cccnc2)nc2c(F)c(-c3cc(F)ccc3F)ccc12 [Compound 514]	5.00 to 6.00
CNc1nc(-c2cccnc2)nc2c(F)c(-c3ccc(C#N)cc3)ccc12 [Compound 512]	> 6.00
CNc1nc(-c2cccnc2)nc2cc(-c3cc(C)oc3C)ccc12 [Compound 276]	< 5.00
COc1ccc2c(N3CCc4cc(Cl)ccc43)nc(-c3cccnc3)nc2c1 [Compound 12]	5.00 to 6.00
CNc1nc(-c2cccnc2)nc2c(F)c(-c3csc4ccccc34)ccc12 [Compound 537]	5.00 to 6.00
CNC(=O)COc1cc(F)cc(-c2ccc3c(NC)nc(-c4cccnc4)nc3c2)c1 [Compound 142]	5.00 to 6.00
CNc1nc(-c2cccnc2)nc2cc(-c3c(F)ccc(F)c3F)ccc12 [Compound 453]	5.00 to 6.00
CNc1nc(-c2cccnc2)nc2c(F)c(-c3ccc(F)c(F)c3F)ccc12 [Compound 521]	5.00 to 6.00
CCOc1ccc2nc(-c3cccnc3)nc(Nc3cncc(C)c3)c2c1 [Compound 65]	5.00 to 6.00
CNc1nc(-c2cccnc2)nc2ccc(-c3cccc(F)c3)c(F)c12 [Compound 223]	5.00 to 6.00
CNc1nc(-c2cccnc2)nc2c(OC)cc(-c3ccccc3OC)cc12 [Compound 207]	5.00 to 6.00
CNc1nc(-c2cncc(OC)c2)nc2cc(-c3cc(F)ccc3F)ccc12 [Compound 162]	5.00 to 6.00
CNc1nc(-c2cccnc2)nc2c(F)c(-c3ccc(F)cc3OC)ccc12 [Compound 543]	5.00 to 6.00
Cc1c(-c2cccc(F)c2)ccc2c(N3CCc4cc(Cl)ccc43)nc(-c3cccnc3)nc12 [Compound 117]	< 5.00
Fc1cccc(-c2ccc3c(N4CCc5cc(Cl)ccc54)nc(-c4cccnc4)nc3c2)c1F [Compound 108]	5.00 to 6.00

Second part, the compound after the results:

pIC50	SMILES
< 5.00	CNc1nc(-c2cccnc2)nc2cc(-c3ccoc3)ccc12 [Compound 318]
5.00 to 6.00	CNc1nc(-c2cccnc2)nc2cc(-c3ccc(F)cc3)c(F)cc12 [Compound 553]
< 5.00	CCc1nc2ccc(Nc3nc(-c4cccnc4)nc4ccc(OC)cc34)cc2o1 [Compound 40]
5.00 to 6.00	CNc1nc(-c2cccnc2)nc2ccc(-c3ccc4c(c3)N(C)C(=O)CO4)cc12 [Compound 467]
> 6.00	CNc1nc(-c2cccnc2)nc2ccc(-c3cccc(C(=O)Nc4nncs4)c3)cc12 [Compound 447]
5.00 to 6.00	CCOc1ccc(F)c(-c2ccc3nc(-c4cccnc4)nc(NC)c3c2)c1 [Compound 201]
> 6.00	CNc1nc(-c2cccnc2)nc2ccc(-c3ccc4c(c3)oc(=O)n4C)cc12 [Compound 470]
5.00 to 6.00	Fc1ccc(-c2ccc3nc(-c4cccnc4)nc(NCc4ccccn4)c3c2)cc1 [Compound 374]
5.00 to 6.00	CNc1nc(-c2cccnc2)nc2cc(-c3c(F)cccc3F)ccc12 [Compound 455]
5.00 to 6.00	CNc1nc(-c2cccnc2)nc2ccc(-c3cc(C)oc3C)cc12 [Compound 285]
5.00 to 6.00	O=[N+]([O-])c1cccc(-c2ccc3nc(-c4cccnc4)nc(N4CCc5cc(Cl)ccc54)c3c2)c1 [Compound 82]
5.00 to 6.00	Fc1ccc(-c2ccc3nc(-c4cccnc4)nc(N4CCc5cc(F)ccc54)c3c2)cc1 [Compound 91]
> 6.00	Cn1ccc2cc(-c3ccc4nc(-c5cccnc5)nc(NCCc5ccccn5)c4c3)ccc21 [Compound 346]
5.00 to 6.00	COc1ccc2nc(-c3cccnc3)nc(Nc3ccc(F)cn3)c2c1 [Compound 24]
